# Source: ChEMBL document CHEMBL1201862, “PubChem BioAssay data set” (2004)
#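 How tested: cells in 96-well plates exposed to compound for 48 hours at five concentrations. Abbreviation: GI50, concentration required for 50% inhibition of growth.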 Calls of active or inactive are those of the source. Rule as the data show it: active = GI50 up to about 1.1 µM and inactive = higher.
# How the values were obtained:
# Assay in all cases: growth of human tumour cells (NCI), 48 h
# SN12C = test system: SN12C
# MDA-MB-435 = test system: MDA-MB-435
# MDA-N = test system: MDA-N
# A549 = test system: A549
# NCI-H226 = test system: NCI-H226
# OVCAR-4 = test system: OVCAR-4
# OVCAR-3 = test system: OVCAR-3
# KM12 = test system: KM12
# Malme-3M = test system: Malme-3M
# SF-268 = test system: SF-268
# MCF7 = test system: MCF7
# CAKI-1 = test system: CAKI-1
# DU-145 = test system: DU-145
# SNB-75 = test system: SNB-75
# UACC-62 = test system: UACC-62
# UO-31 = test system: UO-31
# HOP-92 = test system: HOP-92
# CCRF-CEM = test system: CCRF-CEM
# SK-MEL-28 = test system: SK-MEL-28
# SR = test system: SR
Compound,GI50 (SN12C),GI50 (MDA-MB-435),GI50 (MDA-N),GI50 (A549),GI50 (NCI-H226),GI50 (OVCAR-4),GI50 (OVCAR-3),GI50 (KM12),GI50 (Malme-3M),GI50 (SF-268),GI50 (MCF7),GI50 (CAKI-1),GI50 (DU-145),GI50 (SNB-75),GI50 (UACC-62),GI50 (UO-31),GI50 (HOP-92),GI50 (CCRF-CEM),GI50 (SK-MEL-28),GI50 (SR)
Cc1cn2c(/C=N/NC(=N)N)c(-c3ccc(Cl)c([N+](=O)[O-])c3)nc2s1,0.705 µM (active),0.611 µM (active),0.857 µM (active),1.61 µM (inactive),1.89 µM (inactive),1.55 µM (inactive),1.13 µM (inactive),0.387 µM (active),1.83 µM (inactive),1.23 µM (inactive),0.895 µM (active),3.36 µM (inactive),1.79 µM (inactive),1.27 µM (inactive),1.78 µM (inactive),1.88 µM (inactive),1.46 µM (inactive),0.267 µM (active),1.71 µM (inactive),–
COc1ccc(/C=C2\CC3C4CC=C5C[C@@H](O)CC[C@]5(C)C4CC[C@]3(C)C2=O)cc1OC (some centres undefined),23.1 µM (inactive),24.3 µM (inactive),42.2 µM (inactive),27.9 µM (inactive),29.4 µM (inactive),21.8 µM (inactive),5.09 µM (inactive),32.8 µM (inactive),27.2 µM (inactive),64.7 µM (inactive),23.3 µM (inactive),29.2 µM (inactive),27.5 µM (inactive),16 µM (inactive),42.9 µM (inactive),14.8 µM (inactive),74.6 µM (inactive),20.7 µM (inactive),81.1 µM (inactive),–
Cc1ccc(C2=NOC(=O)[C@@H]3CCCC[C@@H]23)cc1,> 100 µM (inactive),> 100 µM (inactive),> 100 µM (inactive),> 10 µM (inactive),> 100 µM (inactive),> 100 µM (inactive),> 100 µM (inactive),> 100 µM (inactive),> 100 µM (inactive),> 100 µM (inactive),> 100 µM (inactive),> 100 µM (inactive),27.2 µM (inactive),> 100 µM (inactive),> 100 µM (inactive),> 100 µM (inactive),–,> 100 µM (inactive),> 100 µM (inactive),> 100 µM (inactive)
O=[N+]([O-])c1ccc(NS(=O)(=O)C(F)(F)F)cc1,> 100 µM (inactive),> 100 µM (inactive),> 100 µM (inactive),> 100 µM (inactive),> 100 µM (inactive),> 100 µM (inactive),> 100 µM (inactive),> 100 µM (inactive),–,> 100 µM (inactive),> 100 µM (inactive),> 100 µM (inactive),> 100 µM (inactive),> 100 µM (inactive),> 100 µM (inactive),> 100 µM (inactive),36.6 µM (inactive),92.9 µM (inactive),> 100 µM (inactive),–
CC(=O)c1c2c(cc3c1CC1(Cc4cc5c(cc4C1=O)CCC5)C3)CCC2 (centres undefined),> 61.4 µM (inactive),48.9 µM (inactive),> 87.1 µM (inactive),42.2 µM (inactive),34.3 µM (inactive),38.5 µM (inactive),> 62.4 µM (inactive),53.5 µM (inactive),39.1 µM (inactive),> 81.5 µM (inactive),35.7 µM (inactive),17.3 µM (inactive),> 72.3 µM (inactive),> 78 µM (inactive),> 100 µM (inactive),36.9 µM (inactive),–,14.6 µM (inactive),> 100 µM (inactive),6.64 µM (inactive)
COc1cc(/C=C\C(=O)O)ccc1OCc1ccccc1,> 100 µM (inactive),> 100 µM (inactive),> 100 µM (inactive),> 100 µM (inactive),–,–,> 100 µM (inactive),0.217 µM (active),0.053 µM (active),> 100 µM (inactive),> 100 µM (inactive),> 100 µM (inactive),> 100 µM (inactive),–,> 100 µM (inactive),> 100 µM (inactive),20.3 µM (inactive),> 100 µM (inactive),> 100 µM (inactive),> 100 µM (inactive)
COC(=O)Nc1nc2cc(S(=O)(=O)NC(CC(C)C)C(=O)OC)ccc2[nH]1 (centres undefined),7.89 µM (inactive),0.396 µM (active),0.414 µM (active),7.29 µM (inactive),10.8 µM (inactive),4.83 µM (inactive),0.721 µM (active),2.19 µM (inactive),3.08 µM (inactive),10.8 µM (inactive),1.65 µM (inactive),3.66 µM (inactive),2.43 µM (inactive),2.44 µM (inactive),4.01 µM (inactive),5.96 µM (inactive),2.83 µM (inactive),3.52 µM (inactive),4.35 µM (inactive),–
O=C1CCC2(c3ccc(Cl)cc3)Nc3ncncc3N12 (centres undefined),> 10 µM (inactive),> 10 µM (inactive),> 10 µM (inactive),> 10 µM (inactive),> 10 µM (inactive),> 10 µM (inactive),> 10 µM (inactive),> 10 µM (inactive),> 10 µM (inactive),> 10 µM (inactive),> 10 µM (inactive),–,> 10 µM (inactive),> 10 µM (inactive),> 10 µM (inactive),> 10 µM (inactive),> 10 µM (inactive),> 10 µM (inactive),–,–
CCn1c2ccccc2c2cc(/N=N\c3ccc(C#N)cc3)ccc21,> 100 µM (inactive),> 100 µM (inactive),69.5 µM (inactive),26.9 µM (inactive),56.8 µM (inactive),98.6 µM (inactive),> 100 µM (inactive),83.6 µM (inactive),18.7 µM (inactive),54.7 µM (inactive),4.41 µM (inactive),20.4 µM (inactive),62.7 µM (inactive),30.4 µM (inactive),61.4 µM (inactive),75.7 µM (inactive),25.3 µM (inactive),> 100 µM (inactive),> 100 µM (inactive),–
O=C1/C(=C/c2ccc(Cl)cc2)NC(=S)N1CN1CCOCC1,> 100 µM (inactive),> 100 µM (inactive),> 100 µM (inactive),> 100 µM (inactive),> 100 µM (inactive),> 100 µM (inactive),> 100 µM (inactive),> 100 µM (inactive),> 100 µM (inactive),> 100 µM (inactive),> 100 µM (inactive),–,> 100 µM (inactive),> 100 µM (inactive),> 100 µM (inactive),> 100 µM (inactive),> 100 µM (inactive),74 µM (inactive),> 100 µM (inactive),–
Nc1ccc(-c2nc3cc(F)ccc3s2)cc1,> 100 µM (inactive),> 100 µM (inactive),> 100 µM (inactive),87.7 µM (inactive),–,> 36.7 µM (inactive),> 90.2 µM (inactive),> 68.4 µM (inactive),> 100 µM (inactive),31 µM (inactive),< 0.01 µM (active),27.7 µM (inactive),30.5 µM (inactive),11.2 µM (inactive),28.6 µM (inactive),> 60 µM (inactive),23.1 µM (inactive),> 45.6 µM (inactive),> 100 µM (inactive),5.96 µM (inactive)
CSCC[C@H]1C(=O)N=C(N)N1C(=O)OCc1ccccc1,31 µM (inactive),34 µM (inactive),28.9 µM (inactive),–,30 µM (inactive),46.5 µM (inactive),38.7 µM (inactive),42.9 µM (inactive),33.3 µM (inactive),38.4 µM (inactive),28.8 µM (inactive),20 µM (inactive),> 100 µM (inactive),60.7 µM (inactive),19.1 µM (inactive),30.8 µM (inactive),–,–,24.2 µM (inactive),17.8 µM (inactive)
O=C1/C(=C/c2ccc(Cl)cc2)Oc2cc(O)ccc21 [6-HYDROXY-4'-CHLORO AURONE],29.8 µM (inactive),36.1 µM (inactive),30.2 µM (inactive),30.1 µM (inactive),28.2 µM (inactive),47.5 µM (inactive),34.7 µM (inactive),38.5 µM (inactive),–,52.8 µM (inactive),34 µM (inactive),> 10 µM (inactive),41.4 µM (inactive),31.6 µM (inactive),34.2 µM (inactive),20.5 µM (inactive),–,20.2 µM (inactive),59.6 µM (inactive),20.2 µM (inactive)
O=C(NP(=O)(N1CC1)N1CC1)c1cc(I)ccc1I [DIIODBENZOTEPH],26.8 µM (inactive),32.3 µM (inactive),> 73.6 µM (inactive),23.6 µM (inactive),46.1 µM (inactive),77.3 µM (inactive),36.6 µM (inactive),> 91.2 µM (inactive),50.4 µM (inactive),27.3 µM (inactive),38 µM (inactive),> 22.3 µM (inactive),15.6 µM (inactive),37.9 µM (inactive),10.4 µM (inactive),28.1 µM (inactive),59.7 µM (inactive),4.86 µM (inactive),> 95.3 µM (inactive),–
CC1(C)CC(O)CC(C)(C)N1O [TEMPOL HYDROXYLAMINE],> 100 µM (inactive),> 100 µM (inactive),> 100 µM (inactive),> 100 µM (inactive),–,–,68.1 µM (inactive),> 100 µM (inactive),> 100 µM (inactive),> 100 µM (inactive),> 100 µM (inactive),> 100 µM (inactive),> 100 µM (inactive),> 100 µM (inactive),> 100 µM (inactive),> 100 µM (inactive),–,> 100 µM (inactive),> 100 µM (inactive),> 100 µM (inactive)
